Reference: patent US11692436B2, “Molecular tracers and modified proppants for monitoring underground fluid flows” (National Technology & Engineering Solutions of Sandia, LLC, priority 2014, dated 2023)

Assay: Elution studies: tracer release from an infused porous proppant pack under constant solvent flow
Assay type: physicochemical
Details: proppant pack infused with 4
Procedure: Elution studies: Laboratory experiments designed to mimic fluid flow through hydraulically-fractured zones in a subsurface well that contain a ceramic proppant were conducted. In general, the experimental setup uses a cartridge pump to send the desired solvent fluid (either aqueous or hydrocarbon) at a constant rate through a small “proppant pack” to a fraction collector. The proppant pack consists of porous proppants that have been infused with the metal salen compounds which are packed into a plastic syringe equipped with a fine mesh proppant retention screen at the entrance tip. The pore volume—a measure of the fluid volume within the pack of proppant pellets—is measured. The proppant pack is then sealed at the top with a rubber septum to generate pressure to force the exiting fluid into tubing for transport to the collection test tubes in the fraction collector. Samples were collected over many pore volumes and the concentrations of metal complexes in the samples were measured by either Atomic Absorption Spectrophotometry (AAS) or Raman spectroscopy after the desired number of pore volumes had passed over the proppant pack. […] This retardation of tracer release in the early stage of use is important as it will extend the useful life of the tracer in practical applications, as the total amount of tracer that can be loaded is limited by the porosity of the proppant and solubility of the M-L metal complex.
(iii) Elution data. As mentioned previously, in order for the prepared metal-salen ligand complexes to be useful in tracking fluid flows the infused complexes must elute from the underground proppants upon exposure to the produced fluid, and remain soluble until they are analyzed above-ground. […]
Second, the testing solvent can be either an aqueous salt solution that simulates a formation brine or a long-chain hydrocarbon (such as Isopar L) to mimic the organic products. […] The amount of eluted tracer could also be measured using quantitative Raman spectroscopy. […]

[(κ^4-(O,N,N′,O′)saloPh-Bu^t)Mg(py)2].tol [Compound 4]
level of eluted Mg-salen complex (aliquot taken after four pore volumes had been collected (initial phase)): 176 ppb
level of eluted Mg-salen complex (intermediate sampling at the 20 pore volume mark): 29 ppb
level of eluted Mg-salen complex (latter stages of testing at the ~40 pore volume mark): 9 ppb
